Experimental data: patent US20250375444A1, “METHOD OF TREATING ALZHEIMER’S DISEASE” (AmyriAD Pharma, Inc., priority 2021, published 2025)
“Also recorded” adds a separate entry of the source. Like-named read-outs stand apart in the source and are kept apart here.

What was measured:
[1] = system: long-term potentiation (LTP); conditions: cited from earlier work
AD subjects [2] = test: Safety extension study: subjects started on memantine hydrochloride; assay type: in vivo, human; conditions: for Adverse Events during Memantine Co-administration: 401: 180 mg AD101
Description: (§1) Subjects were titrated as follows: all subjects receive 60 mg once daily for the first month, 120 mg once daily for the second month and 180 mg once daily for the third month. Dose increases were dependent on the subject's tolerability of the previous dose.

[3] = system: ubiquitin-proteasome system pathway; conditions: cited from earlier work
[4] = system: nicotine-stimulated release of ACh
[5] = system: amyloid precursor protein; conditions: cited from earlier work
[6] = system: pro-ADAM10 and/or BACE protein; conditions: cited from earlier work
protein kinase C = conditions: cited from earlier work
[7] = system: extracellular ACh and dopamine concentrations
Aβ-like deposits = conditions: in vivo; cited from earlier work
[8] = system: Ca^2+/calmodulin-dependent protein kinase II (CaMK II); conditions: cited from earlier work
AD subjects [9] = test: 12-week open-label multicenter safety extension study (Study 401) of AD101
Description: as §1

[10] = system: acetylcholine (ACh) levels; conditions: rodent brains; cited from earlier work
[11] = system: subjects having probable AD; conditions: cited from earlier work
[12] = Total, unique subjects (N = 293)
[13] = Total, unique subjects (N = 293), denominator 293
[14] = all doses, safety population 293 subjects

O=C1N=C2C=CC=CN2C12Cc1ccccc1C2 [AD101, 1′,3′-dihydro-2H-spiro[imidazo[1,2α]pyridine-3,2′-inden]-2-one]
Long-term potentiation (LTP) [1]: enhancement | Laboratory or vitals sign abnormalities (AD subjects [2]; 5 subjects taking memantine hydrochloride, AD101 up to 180 mg): no clinically significant laboratory or vitals sign abnormalities were observed | Adverse Events during Memantine Co-administration (AD subjects [2]; Subject 03-2003, memantine 5 mg BID ongoing): No new AEs. | Adverse Events during Memantine Co-administration (AD subjects [2]; Subject 14-2108, memantine titrated 5 mg QD to 10 mg BID over 4 weeks): No new AEs. | Adverse Events during Memantine Co-administration (AD subjects [2]; Subject 14-2178, memantine titrated 5 mg QD to 10 mg BID over 4 weeks): Sinus headache ×1 day,; also recorded: Dizzy/lightheaded over 18; also recorded: Vomiting ×1 day, occurred 2 | Adverse Events during Memantine Co-administration (AD subjects [2]; Subject 18-2018, memantine 10 mg QD): Decreased appetite ×9 days; also recorded: UTI ×7 days began 30 days; also recorded: Confusion ×8 days, began 38; also recorded: Anxiety, ongoing at; also recorded: URI ×14 days began 30 days | Adverse Events during Memantine Co-administration (AD subjects [2]; Subject 18-2122, memantine 10 mg QD): No new AEs. | Activity of the ubiquitin-proteasome system pathway [3]: enhance the activity | Nicotine-stimulated release of ACh [4]: potentiates | Cleavage of amyloid precursor protein [5]: induce cleavage | Level of pro-ADAM10 and/or BACE protein [6]: decrease the level | Activity of protein kinase C (protein kinase C): increased activity | Extracellular ACh concentrations ([7]; cerebral cortex): increases | Extracellular ACh concentrations ([7]; hippocampus): increases | Extracellular dopamine concentrations ([7]; hippocampus): increases | Accumulation of Aβ-like deposits (Aβ-like deposits): decreases accumulation | Activity of CaMK II [8]: increased activity | Discontinued Early (AD subjects [9]; 60 mg QD (N = 293)): 16 n | Discontinued Early: Adverse Event (AD subjects [9]; 60 mg QD (N = 293)): 8 n | Discontinued Early: Adverse Event (AD subjects [9]; 60 mg QD (N = 293), denominator 293): (2.7) % | Discontinued Early (AD subjects [9]; 120 mg QD (N = 276)): 14 n | Discontinued Early: Adverse Event (AD subjects [9]; 120 mg QD (N = 276)): 4 n | Discontinued Early: Adverse Event (AD subjects [9]; 120 mg QD (N = 276), denominator 293): (1.4) % | AE: Fatigue (AD subjects [9]; 180 mg (N = 243)): 0 n | AE: Somnolence (AD subjects [9]; 180 mg (N = 243)): 0 n | Discontinued Early (AD subjects [9]; 180 mg QD (N = 243)): 6 n | Discontinued Early: Adverse Event (AD subjects [9]; 180 mg QD (N = 243)): 5 n | Discontinued Early: Adverse Event (AD subjects [9]; 180 mg QD (N = 243), denominator 293): (1.7) % | Safety of 180 mg QD versus lower doses (AD subjects [9]; 180 mg QD vs 60 mg QD and 120 mg QD): at least as safe as | New safety or tolerability issues (AD subjects [9]; 3-month open-label extension, 60 to 180 mg QD): No new safety or tolerability issues were identified | Pattern of nature or frequency of specific AE related to dose (AD subjects [9]; 60, 120, 180 mg): There does not appear to be any pattern related to AD101 dose | Relationship of SAEs to study drug (investigator) (AD subjects [9]; SAE #00036: syncope, person on 180 mg): unrelated to study drug with the exception of SAE #00036 | Discontinued Early (AD subjects [9]; [12]): 36 n | Discontinued Early: Adverse Event (AD subjects [9]; [12]): 17 n | Subjects with any AE (AD subjects [9]; [12]): 51.2% | Discontinued Early (AD subjects [9]; [13]): (12.3) % | Discontinued Early: Adverse Event (AD subjects [9]; [13]): (5.8) % | Serious Adverse Events (SAEs), number of events (AD subjects [9]; [14]): 17 | Subjects with Serious Adverse Events (AD subjects [9]; [14]): 17 subjects | SAE Event (individual subject) (AD subjects [9]; dose at time of event 60 mg): Asthma; also recorded: Chest Pain; also recorded: Fractured Wrist; also recorded: Seizure; also recorded: Syncope (vasovagal); also recorded: Vestibular neuronitis; also recorded: GI bleed 2°to | SAE Event (individual subject) (AD subjects [9]; dose at time of event 120 mg): Lightheaded; also recorded: Fractured right; also recorded: Fx Left | SAE Event (individual subject) (AD subjects [9]; dose at time of event 180 mg): Syncope; also recorded: Fractured; also recorded: Chest Pain; also recorded: Pneumonia/Pulmonary | SAE Event (individual subject) (AD subjects [9]; dose at time of event N/A (10 days after completing 401)): Multiple CVAs | Death (AD subjects [9]; multiple cerebral vascular accidents, deemed unrelated, 10 days post-study after 60, 120 and 180 mg for 4 weeks each): 1 | SAEs by dose at time of event (AD subjects [9]; on 60 mg AD101): 7 | SAEs by dose at time of event (AD subjects [9]; on 120 mg AD101): 5 | SAEs by dose at time of event (AD subjects [9]; on 180 mg AD101): 4 | Acetylcholine (ACh) levels [10]: increase | Dose response in primary outcome measures ([11]; 10, 60 and 120 mg per day analyzed separately): no discernable dose response | AD101-related safety concerns ([11]; up to 120 mg QD, 12 weeks, with 10 mg donepezil hydrochloride QD): No significant AD101-related safety concerns were identified
